Experimental data: patent publication US8604217B2, “Compound, a process for its preparation, a pharmaceutical composition, use of a compound, a method for modulating or regulating serine/threonine kinases and a serine/threonine kinases modulating agent” (Selvita S.A., priority 2009, dated 2013)
Read-outs that look alike come from different tables or passages of the source.

Legend:
HIPK3(h) = HIPK3(h) (Homo sapiens (Human), UniProt Q9H422); assay: KinaseProfiler kinase panel; assay type: biochemical
CK1(y) = assay: KinaseProfiler kinase panel; assay type: biochemical, yeast; conditions: 1 μM
CDK1/cyclinB(h) = CDK1/cyclinB(h) (Homo sapiens (Human), UniProt P06493); assay: KinaseProfiler kinase panel; assay type: biochemical
Mnk2(h) = Mnk2(h) (Homo sapiens (Human), UniProt Q9HBH9); assay: KinaseProfiler kinase panel; assay type: biochemical
Sequence of Mnk2(h) (Q9HBH9 whole entry): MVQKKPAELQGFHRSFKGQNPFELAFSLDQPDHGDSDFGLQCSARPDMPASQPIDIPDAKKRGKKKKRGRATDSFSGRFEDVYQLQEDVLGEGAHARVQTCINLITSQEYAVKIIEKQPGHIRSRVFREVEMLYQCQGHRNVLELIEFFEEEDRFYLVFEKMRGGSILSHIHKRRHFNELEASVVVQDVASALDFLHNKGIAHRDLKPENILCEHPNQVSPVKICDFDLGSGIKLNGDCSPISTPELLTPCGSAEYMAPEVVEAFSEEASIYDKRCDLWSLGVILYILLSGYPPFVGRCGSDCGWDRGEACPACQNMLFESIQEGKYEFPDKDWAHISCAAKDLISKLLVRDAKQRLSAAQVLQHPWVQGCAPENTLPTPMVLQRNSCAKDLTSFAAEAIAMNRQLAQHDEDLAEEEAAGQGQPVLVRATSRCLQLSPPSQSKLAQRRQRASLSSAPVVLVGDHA

Ret (V804L)(h) = Ret (V804L)(h) (Homo sapiens (Human), UniProt P07949, V804L); assay: KinaseProfiler kinase panel; assay type: biochemical
KDR(h) = KDR(h) (Homo sapiens (Human), UniProt P35968); assay: KinaseProfiler kinase panel; assay type: biochemical
Yes(h) = Yes(h) (Homo sapiens (Human), UniProt P07947); assay: KinaseProfiler kinase panel; assay type: biochemical
Fes(h) = Fes(h) (Homo sapiens (Human), UniProt P07332); assay: KinaseProfiler kinase panel; assay type: biochemical
MSK1(h) = MSK1(h) (Homo sapiens (Human), UniProt O75582); assay: KinaseProfiler kinase panel; assay type: biochemical
IKKα(h) = IKKα(h) (Homo sapiens (Human), UniProt O15111); assay: KinaseProfiler kinase panel; assay type: biochemical
Rsk1(h) = Rsk1(h) (Homo sapiens (Human), UniProt Q15418); assay: KinaseProfiler kinase panel; assay type: biochemical
Sequence of Rsk1(h) (Q15418 whole entry): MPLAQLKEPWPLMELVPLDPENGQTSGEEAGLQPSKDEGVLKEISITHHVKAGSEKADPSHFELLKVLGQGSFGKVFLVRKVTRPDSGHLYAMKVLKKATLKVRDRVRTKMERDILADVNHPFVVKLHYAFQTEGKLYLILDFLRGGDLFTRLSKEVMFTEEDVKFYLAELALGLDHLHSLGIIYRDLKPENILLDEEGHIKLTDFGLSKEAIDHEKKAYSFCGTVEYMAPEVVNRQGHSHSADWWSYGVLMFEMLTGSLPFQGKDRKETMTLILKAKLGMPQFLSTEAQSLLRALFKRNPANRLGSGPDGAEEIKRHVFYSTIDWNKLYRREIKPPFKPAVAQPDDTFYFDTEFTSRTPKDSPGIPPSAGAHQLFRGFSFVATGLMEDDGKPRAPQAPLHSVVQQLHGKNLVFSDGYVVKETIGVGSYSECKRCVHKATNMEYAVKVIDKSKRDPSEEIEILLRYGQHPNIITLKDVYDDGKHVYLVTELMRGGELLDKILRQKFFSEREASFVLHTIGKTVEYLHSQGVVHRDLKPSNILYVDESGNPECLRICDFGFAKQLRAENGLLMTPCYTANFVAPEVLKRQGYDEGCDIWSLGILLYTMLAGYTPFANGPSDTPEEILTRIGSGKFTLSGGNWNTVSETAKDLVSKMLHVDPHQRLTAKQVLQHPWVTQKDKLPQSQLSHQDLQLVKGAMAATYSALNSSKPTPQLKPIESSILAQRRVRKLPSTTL

AMPKα2(h) = AMPKα2(h) (Homo sapiens (Human), UniProt P54646); assay: KinaseProfiler kinase panel; assay type: biochemical
IGF-1R(h) = IGF-1R(h) (Homo sapiens (Human), UniProt P08069); assay: KinaseProfiler kinase panel; assay type: biochemical
CHK2(h) = CHK2(h) (Homo sapiens (Human), UniProt O96017); assay: KinaseProfiler kinase panel; assay type: biochemical
ROCK-II(h) = ROCK-II(h) (Homo sapiens (Human), UniProt O75116); assay: KinaseProfiler kinase panel; assay type: biochemical
Sequence of ROCK-II(h) (O75116 whole entry): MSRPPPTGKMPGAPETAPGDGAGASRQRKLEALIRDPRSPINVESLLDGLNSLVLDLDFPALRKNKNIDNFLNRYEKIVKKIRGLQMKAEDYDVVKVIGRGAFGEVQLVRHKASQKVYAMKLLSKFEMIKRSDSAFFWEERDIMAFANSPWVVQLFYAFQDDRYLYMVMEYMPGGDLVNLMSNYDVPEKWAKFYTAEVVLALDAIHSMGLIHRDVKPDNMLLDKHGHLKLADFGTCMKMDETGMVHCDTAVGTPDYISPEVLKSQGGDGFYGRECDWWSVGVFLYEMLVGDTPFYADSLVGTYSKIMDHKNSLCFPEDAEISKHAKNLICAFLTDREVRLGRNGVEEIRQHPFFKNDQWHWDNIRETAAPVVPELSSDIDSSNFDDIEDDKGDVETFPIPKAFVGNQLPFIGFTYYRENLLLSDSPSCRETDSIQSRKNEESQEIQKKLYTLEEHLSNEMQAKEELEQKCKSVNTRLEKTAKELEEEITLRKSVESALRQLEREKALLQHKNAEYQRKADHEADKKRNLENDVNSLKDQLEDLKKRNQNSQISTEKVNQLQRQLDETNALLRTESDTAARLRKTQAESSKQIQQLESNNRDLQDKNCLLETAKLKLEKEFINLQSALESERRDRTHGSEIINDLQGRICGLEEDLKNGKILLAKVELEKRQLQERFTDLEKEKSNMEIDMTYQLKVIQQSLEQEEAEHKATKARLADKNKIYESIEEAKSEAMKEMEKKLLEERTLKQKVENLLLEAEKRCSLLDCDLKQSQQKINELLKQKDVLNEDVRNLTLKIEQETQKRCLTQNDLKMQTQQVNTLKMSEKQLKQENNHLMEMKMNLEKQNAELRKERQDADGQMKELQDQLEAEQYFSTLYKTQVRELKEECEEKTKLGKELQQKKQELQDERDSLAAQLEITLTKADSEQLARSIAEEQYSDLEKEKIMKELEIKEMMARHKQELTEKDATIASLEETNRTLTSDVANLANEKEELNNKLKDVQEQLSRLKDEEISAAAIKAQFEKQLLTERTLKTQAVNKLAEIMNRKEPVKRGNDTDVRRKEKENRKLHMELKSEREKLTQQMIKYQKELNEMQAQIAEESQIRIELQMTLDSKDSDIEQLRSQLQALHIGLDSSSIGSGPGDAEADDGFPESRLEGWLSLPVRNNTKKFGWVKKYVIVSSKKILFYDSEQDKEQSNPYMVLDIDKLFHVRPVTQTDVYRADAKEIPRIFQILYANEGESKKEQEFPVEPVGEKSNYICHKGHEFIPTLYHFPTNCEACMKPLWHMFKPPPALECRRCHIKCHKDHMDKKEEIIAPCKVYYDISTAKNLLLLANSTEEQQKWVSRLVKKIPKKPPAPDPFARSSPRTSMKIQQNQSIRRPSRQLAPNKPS

AMPKα1(h) = AMPKα1(h) (Homo sapiens (Human), UniProt Q13131); assay: KinaseProfiler kinase panel; assay type: biochemical
CLK3(h) = CLK3(h) (Homo sapiens (Human), UniProt P49761); assay: KinaseProfiler kinase panel; assay type: biochemical
CK1γ2(h) = CK1γ2(h) (Homo sapiens (Human), UniProt P78368); assay: KinaseProfiler kinase panel; assay type: biochemical
Sequence of CK1γ2(h) (P78368 whole entry): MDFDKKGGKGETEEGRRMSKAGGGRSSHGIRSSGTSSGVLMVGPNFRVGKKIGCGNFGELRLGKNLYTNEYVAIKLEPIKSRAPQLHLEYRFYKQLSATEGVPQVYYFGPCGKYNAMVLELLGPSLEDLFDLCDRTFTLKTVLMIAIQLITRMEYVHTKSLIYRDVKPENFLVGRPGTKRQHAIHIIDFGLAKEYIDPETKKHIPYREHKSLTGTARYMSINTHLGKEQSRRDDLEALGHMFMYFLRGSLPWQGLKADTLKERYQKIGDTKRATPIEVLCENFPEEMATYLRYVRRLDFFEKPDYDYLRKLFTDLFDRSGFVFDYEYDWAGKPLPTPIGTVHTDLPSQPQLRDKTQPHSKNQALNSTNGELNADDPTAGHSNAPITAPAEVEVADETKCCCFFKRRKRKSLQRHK

IGF-1R(h), activated = IGF-1R(h), activated (Homo sapiens (Human), UniProt P08069); assay: KinaseProfiler kinase panel; assay type: biochemical
CaMKI(h) = CaMKI(h) (Homo sapiens (Human), UniProt Q14012); assay: KinaseProfiler kinase panel; assay type: biochemical
Sequence of CaMKI(h) (Q14012 whole entry): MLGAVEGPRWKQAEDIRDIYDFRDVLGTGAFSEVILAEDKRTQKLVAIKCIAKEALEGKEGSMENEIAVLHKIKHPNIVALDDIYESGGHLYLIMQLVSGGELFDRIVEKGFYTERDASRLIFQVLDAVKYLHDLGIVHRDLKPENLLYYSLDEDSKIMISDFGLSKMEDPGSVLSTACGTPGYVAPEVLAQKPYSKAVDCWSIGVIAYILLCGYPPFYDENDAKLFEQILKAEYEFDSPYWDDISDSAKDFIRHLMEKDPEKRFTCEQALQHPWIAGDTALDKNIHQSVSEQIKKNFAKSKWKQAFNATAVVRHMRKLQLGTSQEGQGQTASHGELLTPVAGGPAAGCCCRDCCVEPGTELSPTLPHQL

CDK6/cyclinD3(h) = CDK6/cyclinD3(h) (Homo sapiens (Human), UniProt Q00534); assay: KinaseProfiler kinase panel; assay type: biochemical
ARK5(h) = ARK5(h) (Homo sapiens (Human), UniProt O60285); assay: KinaseProfiler kinase panel; assay type: biochemical
FGFR4(h) = FGFR4(h) (Homo sapiens (Human), UniProt P22455); assay: KinaseProfiler kinase panel; assay type: biochemical
Syk(h) = Syk(h) (Homo sapiens (Human), UniProt P43405); assay: KinaseProfiler kinase panel; assay type: biochemical
ZIPK(h) = ZIPK(h) (Homo sapiens (Human), UniProt O43293); assay: KinaseProfiler kinase panel; assay type: biochemical
Sequence of ZIPK(h) (O43293 whole entry): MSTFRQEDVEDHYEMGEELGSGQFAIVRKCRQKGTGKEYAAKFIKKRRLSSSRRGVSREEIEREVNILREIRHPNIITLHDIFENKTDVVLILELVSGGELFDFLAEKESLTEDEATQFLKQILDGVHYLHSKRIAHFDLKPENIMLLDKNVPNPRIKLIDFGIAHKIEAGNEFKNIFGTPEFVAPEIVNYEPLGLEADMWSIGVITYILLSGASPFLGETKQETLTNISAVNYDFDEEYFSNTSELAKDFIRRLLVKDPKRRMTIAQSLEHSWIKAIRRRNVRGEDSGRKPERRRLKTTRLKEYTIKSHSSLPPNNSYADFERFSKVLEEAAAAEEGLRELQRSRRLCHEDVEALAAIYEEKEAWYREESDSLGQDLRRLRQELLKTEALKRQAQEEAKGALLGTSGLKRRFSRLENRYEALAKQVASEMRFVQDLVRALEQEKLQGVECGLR

GRK5(h) = GRK5(h) (Homo sapiens (Human), UniProt P34947); assay: KinaseProfiler kinase panel; assay type: biochemical
ASK1(h) = ASK1(h) (Homo sapiens (Human), UniProt Q99683); assay: KinaseProfiler kinase panel; assay type: biochemical
JNK2α2(h) = JNK2α2(h) (Homo sapiens (Human), UniProt P45984); assay: KinaseProfiler kinase panel; assay type: biochemical
Sequence of JNK2α2(h) (P45984 whole entry): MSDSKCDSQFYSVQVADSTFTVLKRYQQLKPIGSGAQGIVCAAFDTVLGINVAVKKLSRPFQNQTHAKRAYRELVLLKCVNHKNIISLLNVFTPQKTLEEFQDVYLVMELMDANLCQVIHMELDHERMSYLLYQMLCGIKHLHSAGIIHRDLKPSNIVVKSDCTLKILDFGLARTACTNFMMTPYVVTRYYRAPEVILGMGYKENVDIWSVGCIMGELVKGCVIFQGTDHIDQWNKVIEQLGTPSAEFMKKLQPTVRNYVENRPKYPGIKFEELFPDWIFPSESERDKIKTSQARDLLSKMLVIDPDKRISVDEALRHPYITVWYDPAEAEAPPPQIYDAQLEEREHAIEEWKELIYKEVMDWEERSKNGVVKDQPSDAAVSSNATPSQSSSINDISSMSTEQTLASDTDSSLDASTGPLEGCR

PDGFRβ(h) = PDGFRβ(h) (Homo sapiens (Human), UniProt P09619); assay: KinaseProfiler kinase panel; assay type: biochemical
PKCβI(h) = PKCβI(h) (Homo sapiens (Human), UniProt P05771); assay: KinaseProfiler kinase panel; assay type: biochemical
Rse(h) = Rse(h) (Homo sapiens (Human), UniProt Q06418); assay: KinaseProfiler kinase panel; assay type: biochemical
BTK(h) = BTK(h) (Homo sapiens (Human), UniProt Q06187); assay: KinaseProfiler kinase panel; assay type: biochemical
Sequence of BTK(h) (Q06187 whole entry): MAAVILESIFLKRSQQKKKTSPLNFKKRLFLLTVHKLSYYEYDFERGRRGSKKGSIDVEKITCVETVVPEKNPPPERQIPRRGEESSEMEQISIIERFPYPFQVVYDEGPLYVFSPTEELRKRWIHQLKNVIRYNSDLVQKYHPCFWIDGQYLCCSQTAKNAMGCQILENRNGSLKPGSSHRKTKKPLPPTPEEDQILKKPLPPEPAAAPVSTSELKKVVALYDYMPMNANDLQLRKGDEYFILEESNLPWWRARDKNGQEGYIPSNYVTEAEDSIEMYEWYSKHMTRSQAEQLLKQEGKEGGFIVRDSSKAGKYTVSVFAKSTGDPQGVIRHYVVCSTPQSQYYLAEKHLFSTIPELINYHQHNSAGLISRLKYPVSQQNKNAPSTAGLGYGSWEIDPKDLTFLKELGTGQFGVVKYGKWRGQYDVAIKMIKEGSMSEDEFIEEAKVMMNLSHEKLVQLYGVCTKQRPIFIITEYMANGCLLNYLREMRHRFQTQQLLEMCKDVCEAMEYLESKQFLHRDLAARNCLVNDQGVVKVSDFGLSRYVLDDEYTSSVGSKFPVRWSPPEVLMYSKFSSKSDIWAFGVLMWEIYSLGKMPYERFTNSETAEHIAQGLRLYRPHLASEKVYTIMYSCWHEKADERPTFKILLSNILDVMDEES

PDK1(h) = PDK1(h) (Homo sapiens (Human), UniProt O15530); assay: KinaseProfiler kinase panel; assay type: biochemical
CDK2/cyclin A = CDK2/cyclin A (Homo sapiens (Human), UniProt P24941); conditions: tested at 1 μM; cited from earlier work
c-MYC = assay: In vitro inhibition of protein phosphorylation, Western blot in MV4-11 cells; assay type: cell-based, human; conditions: for IC50: Homo sapiens, MV4-11, MV411 cells, read-out: calculated cellular IC50 for biomarker inhibition, c-MYC
Experimental: (§1) The inventors have investigated the efficacy of PIM-1 kinase inhibition by compound 20 on MV4-11 cells 4 h and 24 h after the treatment. The efficacy of PIM-1 inhibition was evaluated basing on the changes in the expression and phosphorylation levels of its downstream target proteins, using Western blot (FIG. 1). Sunitinib was used as a positive control. After densitometric quantification of the obtained results, cellular IC50 was assessed (Table 6). […] PIM-1 and tubulin protein levels were assessed as controls.

p-4EBP1 (Ser65) = assay: as above; assay type: cell-based, human; conditions: for IC50: Homo sapiens, MV4-11, MV411 cells, read-out: calculated cellular IC50 for biomarker inhibition, p-4EBP1 (Ser65)
Experimental: as §1

With CCn1c(N2CCNCC2)nc2c(Br)c(Br)c(Br)c(Br)c21 [Compound 416, 4,5,6,7-tetrabromo-1-ethyl-2-(piperazin-1-yl)-1H-benzo[d]imidazole] the remaining activity at 1 µM (HIPK3(h)) was -1%, the “% remaining activity” value (CK1(y)) was 6% and the remaining activity at 1 µM (CDK1/cyclinB(h)) was 7%. The remaining activity at 1 µM (Mnk2(h)) was 17%, the remaining activity at 1 µM (Ret (V804L)(h)) was 26% and the remaining activity at 1 µM (KDR(h)) was 28%. It also gave a remaining activity at 1 µM (Yes(h)) of 48%, a remaining activity at 1 µM (Fes(h)) of 52% and a remaining activity at 1 µM (MSK1(h)) of 54%. It also gave a remaining activity at 1 µM (IKKα(h)) of 56%, a remaining activity at 1 µM (Rsk1(h)) of 56% and a remaining activity at 1 µM (AMPKα2(h)) of 67%. The remaining activity at 1 µM (IGF-1R(h)) was 75%, the remaining activity at 1 µM (CHK2(h)) was 76% and the remaining activity at 1 µM (ROCK-II(h)) was 81%. It also gave a remaining activity at 1 µM (AMPKα1(h)) of 82%, a remaining activity at 1 µM (CLK3(h)) of 82% and a remaining activity at 1 µM (CK1γ2(h)) of 85%. For the same compound, the remaining activity at 1 µM (IGF-1R(h), activated) was 87%, the remaining activity at 1 µM (CaMKI(h)) was 89% and the remaining activity at 1 µM (CDK6/cyclinD3(h)) was 91%. It also gave a remaining activity at 1 µM (ARK5(h)) of 93%, a remaining activity at 1 µM (FGFR4(h)) of 94% and a remaining activity at 1 µM (Syk(h)) of 95%. The remaining activity at 1 µM (ZIPK(h)) was 95%, the remaining activity at 1 µM (GRK5(h)) was 96% and the remaining activity at 1 µM (ASK1(h)) was 100%. It also gave a remaining activity at 1 µM (JNK2α2(h)) of 100%, a remaining activity at 1 µM (PDGFRβ(h)) of 102% and a remaining activity at 1 µM (PKCβI(h)) of 102%. For the same compound, the remaining activity at 1 µM (Rse(h)) was 105%, the remaining activity at 1 µM (BTK(h)) was 107% and the remaining activity at 1 µM (PDK1(h)) was 109%.

In the case of CN(C)c1nc2c(Br)c(Br)c(Br)c(Br)c2[nH]1 [DMAT, 2-dimethylamino-4,5,6,7-tetrabromo-1H-benzimidazole, reference compound], the “inhibition of CDK2/cyclin A activity” value (CDK2/cyclin A) is listed as “do not inhibit”.

In the case of Brc1c(Br)c(Br)c2[nH]c(N3CCNCC3)nc2c1Br [Compound 20, 4,5,6,7-tetrabromo-2-(piperazin-1-yl)-1H-benzo[d]imidazole], the IC50 (c-MYC; 4 h treatment) is reported as 0.89 µM, the IC50 (c-MYC; 24 h treatment) is reported as 2.03 µM and the “inhibition of c-MYC (Western blot)” value (c-MYC; MV4-11 cells, after 4 h and 24 h) is reported as “dose dependent inhibition”. For the same compound, the IC50 (p-4EBP1 (Ser65); 4 h treatment) was 3.13 µM, the IC50 (p-4EBP1 (Ser65); 24 h treatment) was 1.12 µM and the “inhibition of p-4EBP1(Ser65) (Western blot)” value (p-4EBP1 (Ser65); MV4-11 cells, 4 h and 24 h) was “dose- and time-dependent inhibition”.
